Article PMC9084902, “Low-Molecular Weight Protamine Overcomes Chondroitin Sulfate Inhibition of Neural Regeneration” (Frontiers in Cell and Developmental Biology, 2022)
“Also recorded” adds a separate entry of the source.

Legend:
hippocampal neurons = assay: cell toxicity seen in neuronal morphology / neuronal cells in vitro; type: cell-based, Wistar rat; conditions: neuronal systems, Figures 2, 4
Experimental: (§1) The cortex or hippocampus were obtained from 17 days-old Wistar rat embryos and transferred to ice-cold preparation solution. Neurons were further isolated exactly as described earlier in Sahu’s publication ([Sahu et al., 2019]). Primary rat cortical or hippocampal neurons (E17 Wistar rats) were cultured in 96-well plates at the density of 20000 cells/well in Neurobasal medium supplemented with B27 serum substitute, penicillin, streptomycin and L-glutamate for 2 days in vitro (DIV). The plates were precoated with aggrecan (5 ug/ml, 150 µl/well). Protamine or protamine peptides were added to the culture medium at different concentrations. To analyze the effect of protamine or its fragment on neurite outgrowth, the plates were coated with 10 μg/ml of protamine or LMWP. For the experiment with chondroitinase, the aggrecan-coated plates were treated with chondroitinase ABC (Amsbio AMS. E1028, lot CF0029) for 4 h followed by 2 times washing with PBS before cell plating, and the cell culture imaging was carried out after 3 DIV incubation with 4 uM LMWP added to the medium. Neurite outgrowth was imaged with phase contrast microscopy (Olympus IX70 microscope and Retiga 2000R digital camera) using both x10 and x20 objectives. Processes of neurons over the diameter of the neuronal soma were interpreted as neurites. Neurite length was measured with ImageJ software and averaged from 2 to 3 independent experiments with 1–2 technical replicas in each independent experiment.

cortical neurons [1] = assay: neurite outgrowth on aggrecan substrate, cortical neurons; type: cell-based, Wistar rat
Experimental: as §1, with “Processes of neurons over the diameter of the neuronal soma were interpreted as neurites.” left out

[2] = cited from earlier work
Text: We therefore tested protamine fragments that might be nontoxic but would still retain the ability to overcome the CSPG inhibition. […] This fragment is found in the literature as the low-molecular weight protamine (LMWP) with the capability to penetrate through the cell membranes and to carry drug cargoes to tissues including ...

[3] = system: mouse cervical hemicontusion model; assay: vertical screen (climbing) test, C5 hemicontusion, subcutaneous delivery; type: in vivo, C57BL6/NHsd mouse; conditions: 16 µg s.c. daily 49 days; n = 7–13
Experimental: (§2) The effectiveness of systemically delivered LMWP in treatment of spinal cord trauma was tested in the cervical hemicontusion model (Figure 1B). Baseline behavior was assessed 1 week before the trauma surgery, and the results were used for balanced distribution of animals to the 3 experimental groups (“sham”, “trauma + PBS” and “trauma + LMWP”). Each housing cage contained animals from all three groups. Subcutaneous injections to the back area were started on the next day after the trauma and continued daily for 49 days. LMWP was injected subcutaneously at the 16 µg dose in 200 µl of sterile PBS. The groups “sham” and “trauma + PBS” got the same volume of PBS. Behavioral assessment was started 2 weeks after the trauma and finished at the week 12.
(§3) The mouse was placed on the brink of a horizontal wire screen (25 × 22 cm, diameter of wires 2 mm spaced at 1 cm) faced to edge. Immediately after that the screen was turned vertically to place the mouse to the upside down position at the lower edge. The time that the animal needed to climb to the upper edge was measured during 1 min. If the animal was not able to climb up or fell down from the screen the maximum time 60 s was marked as the climbing time. The average parameter of three subsequent trials repeated with at least 1 min interval was used for data analysis.

[4] = system: mouse cervical hemisection model; assay: vertical screen test, C5 hemisection, ICV delivery; type: in vivo, C57BL6/NHsd mouse; conditions: n = 5–10
Experimental: as §3

cortical neurons [5] = assay: neurite outgrowth on chondroitinase ABC-treated aggrecan substrate, cortical neurons; type: cell-based, Wistar rat; conditions: ChABC 4 h, 4 µM LMWP in medium, 3 DIV; p = 0.012, unpaired t-test, n = 6; Figure 5B
Experimental: as §1, with “Processes of neurons over the diameter of the neuronal soma were interpreted as neurites.” left out

[6] = system: mouse cervical hemicontusion model; assay: locomotor activity in open field, C5 hemicontusion, subcutaneous delivery; type: in vivo, C57BL6/NHsd mouse; conditions: 15 min open field, 16 µg s.c. daily 49 days; n = 7–13
Experimental: as §2
To evaluate the locomotor activity the animals were released to the corner of a transparent plexiglas chamber (30 cm × 30 cm, MedAssiociates, St.Albans,VT; illumination about 100lx) for 15 min. The travelled distance and the time spent in vertical activity (exploratory rearings) were analyzed with the Activity Monitor v5.1 software (Med Associates, St. Albans, VT).

[7] = system: mouse cervical hemicontusion model; assay: frontpaw grip strength, C5 hemicontusion, subcutaneous delivery; type: in vivo, C57BL6/NHsd mouse; conditions: 16 µg s.c. daily 49 days
Experimental: as §2

[8] = system: NF200+ fibers in trauma hemisphere of spinal cord; assay: NF200 immunohistochemistry, C5 hemicontusion, subcutaneous delivery; type: in vivo, C57BL6/NHsd mouse; conditions: 16 µg s.c. daily 49 days
Experimental: as §2
The samples for immunohistochemistry (IHC) were taken from all animals tested in the hemicontusion study with subcutaneous 7 weeks treatment (Figure 1B) at the end of the experiment at 12 weeks (Figure 1B). The cervical spinal cord segments were sectioned into 40 microns thick transverse sections from tissue blocks (samples embedded into solid OCT compound by freezing with dry ice) by using microtome (Leica CM3050 S). Few spinal cord samples were excluded from the study due to technical problems in spinal cord dissection or sectioning procedures, and the total amount of 11 spinal cords of the “trauma + PBS” and 7 spinal cords of the “trauma + LMWP” group were analyzed. Every fourth section per animal was chosen for IHC neurofilament staining making the section interval […]. The sections were stained with primary antibodies against NF200 (ab8135, Abcam, 1:500) in blocking buffer (1xTBS with 0.5% TX-100 and with 3%BSA) and AlexaFluor 594 (REF A11037, Invitrogen) secondary antibodies at the dilution 1:400 in TBS-T (1xTBS with 0.5% TX-100) on microscope slides. The washings prior to and between the stainings were done with TBS-T, whereas the final wash before mounting with Vectastain mounting medium with DAPI, was done by using reverse osmose water. […]

VSRRRRRRGGRRRR [LMWP, low-molecular weight protamine]
toxicity for neuronal cells (summary) (hippocampal neurons): little if any toxicity even at high concentrations | stimulation of neurite outgrowth versus 0 μg/ml (cortical neurons [1]; LMWP in medium at 1.75 µM (3.3 μg/ml), p = 0.0319, n = 6, Figure 5A): ~6 times | stimulation of neurite outgrowth versus 0 μg/ml (cortical neurons [1]; LMWP in medium at 3.5 µM (6.6 μg/ml), p < 0.0001, n = 6, Figure 5A): more than 20 times | blood-brain barrier passage [2]: reported to pass the blood-brain barrier | cell membrane penetration and cargo delivery to tissues including the brain [2]: capability to penetrate through the cell membranes and to carry drug cargoes to tissues including the brain | toxicity relative to protamine ([2]; ref Byun et al., 2000, He et al., 2014, Edwards et al., 2020): non-toxic substitute of protamine | climbing test recovery versus PBS [3]: tendency for better recovery in the LMWP group compared to the PBS group | climbing time in vertical screen, time course ([4]; ICV LMWP 4 µl of 1 mg/ml daily, 6 days from day 3, weeks 2-9): progressively reduced the climbing time | climbing time difference versus PBS-treated group ([4]; ICV LMWP, week 9, p = 0.0304, Kruskal-Wallis with Dunn's): reached a statistically significant level at the week 9 after the trauma | effect of CS digestion of aggrecan by chondroitinase ABC on LMWP-induced neurite outgrowth (cortical neurons [5]): significantly decreased the neurite outgrowth-promoting effect of LMWP; also recorded: abolished the activity of LMWP to enhance neurite outgrowth | general locomotor activity [6]: did not affect general locomotor activity | grip strength versus PBS ([7]; week 6 p = 0.0449, week 9 p = 0.0221, one-way ANOVA with Tukey's): significantly increased grip strength parameters on the week 6 and the week 12; also recorded: significant increase of frontpaw grip strength in comparison with the PBS-treated animals on the weeks 6 and 9 | grip strength versus PBS, week 12 ([7]; week 12 p = 0.0558, one-way ANOVA with Tukey's): trend towards increased grip strength on the week 12 | NF200+ signal area near trauma epicenter versus PBS ([8]; 60 µm rostral, p = 0.0064, no similar trend in the sections around): significant difference of the NF200+ signal area in one section level localized almost in the middle of the trauma epicenter | area of NF200+ signal on trauma periphery versus PBS ([8]; about ±400 µm from epicenter: 400 µm rostral p = 0.0021, −400 µm caudal p = 0.0346, Mann-Whitney, n = 7–11): increased the area of the NF200+ signal in the section levels located on the trauma periphery | NF200+ fibers (%) in trauma hemisphere, LMWP versus control group ([8]; week 12, n = 7–11): statistically significant group difference between the LMWP-treated mice and the control mice in NF200+ fibers (%)
